Data published in ChEMBL document CHEMBL1136253 (Bioorg Med Chem Lett, 2003).

Columns and labels:
[1] = target: T1, Corticotropin-releasing factor receptor 1 (Homo sapiens, UniProt P34998); assay: Binding affinity towards Corticotropin releasing factor receptor 1 was measured through displacement of [125I]sauvagine expressed in HEK293 cells; format: cell-based
T1 sequence (P34998 whole entry): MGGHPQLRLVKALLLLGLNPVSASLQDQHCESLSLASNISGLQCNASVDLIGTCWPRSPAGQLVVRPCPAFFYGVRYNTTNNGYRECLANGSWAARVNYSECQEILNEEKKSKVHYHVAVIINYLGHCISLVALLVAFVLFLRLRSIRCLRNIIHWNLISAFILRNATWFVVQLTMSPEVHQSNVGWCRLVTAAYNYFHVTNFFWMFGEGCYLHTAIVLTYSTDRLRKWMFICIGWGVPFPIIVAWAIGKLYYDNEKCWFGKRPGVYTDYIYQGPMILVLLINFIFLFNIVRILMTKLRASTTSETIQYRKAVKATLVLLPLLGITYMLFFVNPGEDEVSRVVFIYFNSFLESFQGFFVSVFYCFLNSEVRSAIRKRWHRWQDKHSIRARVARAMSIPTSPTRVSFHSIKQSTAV

[2] = target: T1, Corticotropin-releasing factor receptor 1; assay: Inhibition of Corticotropin releasing factor receptor 1-stimulated cAMP production; format: functional
[3] = target: T1, Corticotropin-releasing factor receptor 1; assay: Inhibition of (Corticotropin-Releasing Factor Receptor) CRF-stimulated cAMP production; format: functional

SMILES | Ki [1] | IC50 [2] | IC50 [3]
CCCN(CCCOC)c1cc(C)nc2c(-c3ccc(Cl)cc3Cl)nn(C)c12 | 9.8 nM | – | –
CCCCN(CCSC)c1cc(C)nc2c(-c3ccc(Cl)cc3Cl)nn(C)c12 | 1.4 nM | – | –
CCCCN(CCCC)c1cc(C)nc2c(-c3c(C)cc(C)cc3C)nn(C)c12 | 5.1 nM | – | –
Cc1cc(N(CC(C)C)CC2CC2)c2c(n1)c(-c1ccc(Cl)cc1Cl)nn2C | 3.7 nM | – | –
CCCCCN(CC)c1cc(C)nc2c(-c3ccc(Cl)cc3Cl)nn(C)c12 | 1.3 nM | – | –
CCCCCN(CCCC)c1cc(C)nc2c(-c3ccc(Cl)cc3Cl)nn(C)c12 | 0.9 nM | – | –
CCCCN(CCCC)c1cc(C)nc2c(-c3ccc(Cl)cc3Cl)nn(C)c12 | – | 5 nM | –
CCCCN(CCCC)c1cc(C)nc2c(-c3ccc(OC)cc3Cl)nn(C)c12 | 4.8 nM | – | –
CCCN(C)c1cc(C)nc2c(-c3ccc(Cl)cc3Cl)nn(C)c12 | 24 nM | – | –
CCCCN(CCc1ccccn1)c1cc(C)nc2c(-c3ccc(Cl)cc3Cl)nn(C)c12 | 13 nM | – | –
CCCCN(CCCC)c1cc(C)nc2c(-c3c(C)cc(C)cc3Cl)nn(C)c12 | 2.1 nM | – | –
COCCN(c1cc(C)nc2c(-c3ccc(Cl)cc3Cl)nn(C)c12)C(C)C | 9.7 nM | – | –
Cc1cc(NCc2ccc(O)cc2)c2c(n1)c(-c1ccc(Cl)cc1Cl)nn2C | > 10000 nM | – | –
CCCN(Cc1ccc(O)cc1)c1cc(C)nc2c(-c3ccc(Cl)cc3Cl)nn(C)c12 | 13 nM | – | –
COCCN(CCOC)c1cc(C)nc2c(-c3ccc(Cl)cc3Cl)nn(C)c12 | 8.2 nM | 38 nM | –
CCCCN(c1cc(C)nc2c(-c3ccc(Cl)cc3Cl)nn(C)c12)C(CC)CC | 7 nM | – | –
CCCCN(CC1CCCO1)c1cc(C)nc2c(-c3ccc(Cl)cc3Cl)nn(C)c12 (stereo unspecified) | 11.2 nM | – | –
CCCN(CCO)c1cc(C)nc2c(-c3ccc(Cl)cc3Cl)nn(C)c12 | 4.4 nM | 18 nM | –
CCN(CC1CC1)c1cc(C)nc2c(-c3ccc(Cl)cc3Cl)nn(C)c12 | 4.4 nM | – | –
CCCCN(CCc1ccncc1)c1cc(C)nc2c(-c3ccc(Cl)cc3Cl)nn(C)c12 | 34 nM | – | –
CCCCN(Cc1ccncc1)c1cc(C)nc2c(-c3ccc(Cl)cc3Cl)nn(C)c12 | 68 nM | – | –
CCCN(CC1CC1)c1cc(C)nc2c(-c3ccc(Cl)cc3Cl)nn(C)c12 | – | – | 16 nM

More lines, now with the values ahead:

Ki [1] | IC50 [2] | IC50 [3] | SMILES
4 nM | – | – | CCCCCCN(CCOC)c1cc(C)nc2c(-c3ccc(Cl)cc3Cl)nn(C)c12
62 nM | – | – | CCCC(CO)Nc1cc(C)nc2c(-c3ccc(Cl)cc3Cl)nn(C)c12 (stereo unspecified)
32 nM | – | – | COCCN(C)c1cc(C)nc2c(-c3ccc(Cl)cc3Cl)nn(C)c12
4.1 nM | – | – | CCCN(CC)c1cc(C)nc2c(-c3ccc(Cl)cc3Cl)nn(C)c12
170 nM | – | – | CCCCNc1cc(C)nc2c(-c3ccc(Cl)cc3Cl)nn(C)c12
3.2 nM | 15 nM | – | CCN(CCOC)c1cc(C)nc2c(-c3ccc(Cl)cc3Cl)nn(C)c12
6.7 nM | – | – | CCCCCN(CCOC)c1cc(C)nc2c(-c3ccc(Cl)cc3Cl)nn(C)c12
340 nM | – | – | CCCCN(CCCC)c1cc(C)nc2c(-c3ccc(Cl)cc3)nn(C)c12
2.8 nM | – | – | CCCCN(CCCC)c1cc(C)nc2c(-c3ccc(C)cc3Cl)nn(C)c12
18 nM | – | – | CCCCN(CCCOC)c1cc(C)nc2c(-c3ccc(Cl)cc3Cl)nn(C)c12
12.5 nM | – | – | CCN(CCCOC)c1cc(C)nc2c(-c3ccc(Cl)cc3Cl)nn(C)c12
1 nM | – | – | CCCCCCN(CC1CC1)c1cc(C)nc2c(-c3ccc(Cl)cc3Cl)nn(C)c12
5.1 nM | 36 nM | – | CCCN(CCOC)c1cc(C)nc2c(-c3ccc(Cl)cc3Cl)nn(C)c12
1.2 nM | – | – | CCCCCN(CCC)c1cc(C)nc2c(-c3ccc(Cl)cc3Cl)nn(C)c12
380 nM | – | – | CCCCN(CC1CCCN1C)c1cc(C)nc2c(-c3ccc(Cl)cc3Cl)nn(C)c12 (stereo unspecified)
10.4 nM | – | – | CCCCN(CCOC)c1cc(C)nc2c(-c3ccc(Cl)cc3Cl)nn(C)c12
1.5 nM | – | – | CCCCCN(CC1CC1)c1cc(C)nc2c(-c3ccc(Cl)cc3Cl)nn(C)c12
1.3 nM | 3 nM | – | CCCCN(CC1CC1)c1cc(C)nc2c(-c3ccc(Cl)cc3Cl)nn(C)c12
10.5 nM | – | – | COCCN(CC(C)C)c1cc(C)nc2c(-c3ccc(Cl)cc3Cl)nn(C)c12
